This is an account of results in patent EP4599826A1, “LEUCINE FOR USE IN THE TREATMENT OF CANCER” (priority 2024, dated 2025).

The subject of experiment [1] is LLC lung cell transplants. Put plainly: syngeneic subcutaneous LLC lung cancer mouse model: tumor growth and survival. The format is in vivo, female C57BL6/J mice. How it is done: (§1) As for experiments employing the use of chemotherapy, carboplatin (Sindan, 10mg/ml), oxaliplatin (Mylan, 5mg/ml in infusion solution) and paclitaxel (Accord, 6mg/ml in 527mg/ml polyoxyethylated castor oil and 391 mg/ml ethanol) were provided by Istituto Nazionale dei Tumori, Milano.
(§2) The impact of oral Leucine supplementation, as given at a daily dose of 500 mg/Kg Leucine by oral gavage, was investigated on in vivo tumor growth and mouse survival in orthotopic (4T1 and E0771 TNBC cells injected in the mammary fat pad of female BALB/c mice and female C57BL6/J mice, respectively) or subcutaneous (CT26: murine colorectal carcinoma - CRC, or LLC: murine […] lung carcinoma cells, injected in the subcutaneous tissue of female BALB/c mice and female C57BL6/J mice, respectively) syngeneic tumor models.

The test system of another experiment is 4T1-luc cell transplants. Kind of experiment: syngeneic orthotopic 4T1 TNBC mouse model: tumor growth and survival. Format: in vivo, female BALB/c mice. Here is the method: as §1, §2
A further experiment concerns E0771 cell transplants. Kind of experiment: syngeneic orthotopic E0771 TNBC mouse model: tumor growth and survival. The format is in vivo, female C57BL6/J mice. How it is done:
as §1, §2

Experiment [2] has as its system CT26 CRC cell transplants. Kind of experiment: syngeneic subcutaneous CT26 colorectal cancer mouse model: tumor growth and survival. The format is in vivo, female BALB/c mice. Here is the method: as §1, §2
In experiment [3] the test system is syngeneic mouse tumor models. The conditions noted are these: Leucine + anti-PD-L1 immunotherapy, tumor model not stated.
Where [4] appears, read: carboplatin alone, 50 mg/kg once a week i.p.
The mark [5] stands for this setting: paclitaxel alone, 30 mg/kg once a week i.p.
Setting [6] is: Leu + fasting + anti-PD-L1, compared to anti-PDL1 MoAb + fasting.
[7] abbreviates: Leucine 500 mg/kg daily + cyclic fasting + carboplatin 50 mg/kg weekly + anti-PD-L1 MoAb, compared to the fasting-Leucine doublet.
[8] abbreviates: Leucine 500 mg/kg daily oral gavage + carboplatin 50 mg/kg once a week i.p., effect less evident, yet still statistically significant.
The mark [9] stands for this setting: Leucine 500 mg/kg daily oral gavage + cyclic fasting (48-hour water-only fasting, repeated every 7 days).
Setting [10] is: Leucine 500 mg/kg once a day by oral gavage, alone, standard diet.
Where [11] appears, read: Leucine 500 mg/kg daily oral gavage + anti-PD-L1 MoAb 100 ug per mouse i.p. every other day, 4 cycles.
[12] abbreviates: Leucine 500 mg/kg daily oral gavage + oxaliplatin 5 mg/kg once a week i.p., effect less evident, yet still statistically significant.
The mark [13] stands for this setting: Leucine 500 mg/kg daily oral gavage + paclitaxel 30 mg/kg once a week i.p., most relevant effects in this model.
Where [14] appears, read: oxaliplatin alone, 5 mg/kg once a week i.p.

The structures appear in SMILES notation.

With `N.N.O=C([O-])C1(C(=O)[O-])CCC1.[Pt+2]` [carboplatin, reference compound], in experiment [1] (setting [4]), the animal survival entry is listed as “statistically significant prolongation of animal survival” and the “in vivo tumor growth” value was “slowed down in vivo tumor growth”. Besides, in the experiment with 4T1-luc cell transplants (setting [4]), the animal survival entry is listed as “statistically significant prolongation of animal survival” and the “in vivo tumor growth” value is listed as “slowed down in vivo tumor growth”.
`CC(=O)O[C@H]1C(=O)[C@@]2(C)[C@H]([C@H](OC(=O)c3ccccc3)[C@]3(O)C[C@H](OC(=O)[C@H](O)[C@@H](NC(=O)c4ccccc4)c4ccccc4)C(C)=C1C3(C)C)[C@]1(OC(C)=O)CO[C@@H]1C[C@@H]2O` [paclitaxel, reference compound]: in the experiment with E0771 cell transplants (setting [5]), the animal survival entry is “statistically significant prolongation of animal survival” and the “in vivo tumor growth” value is “slowed down in vivo tumor growth”.
Regarding `CC(C)C[C@H](N)C(=O)O` [Leucine], the animal survival result in experiment [1] (setting [6]) is reported as “prolonged animal survival”; in experiment [1] (setting [7]), “meaningful prolongation of animal survival”; in experiment [1] (setting [8]), “prolonging animal survival”; in experiment [1] (setting [9]), “significant prolongation of animal survival”; in experiment [1] (setting [10]), “prolonged animal survival”; with 4T1-luc cell transplants (setting [7]), “meaningful prolongation of animal survival”. Also, the animal survival result is given as “prolonged animal survival” in the experiment on 4T1-luc cell transplants (setting [11]); “prolonging animal survival” in the experiment on 4T1-luc cell transplants (setting [8]); “significant prolongation of animal survival” in the experiment with 4T1-luc cell transplants (setting [9]); “prolonged animal survival” with 4T1-luc cell transplants (setting [10]); “meaningful prolongation of animal survival” in experiment [2] (Leucine 500 mg/kg daily + cyclic fasting + oxaliplatin 5 mg/kg weekly + anti-PD-L1 MoAb, compared to the fasting-Leucine doublet); “prolonged animal survival” in experiment [2] (setting [11]). For the same compound, the animal survival entry in experiment [2] (setting [9]) is given as “significant prolongation of animal survival”; in experiment [2] (setting [12]), “prolonging animal survival”; in experiment [2] (setting [10]), “prolonged animal survival”; in the experiment on E0771 cell transplants (Leucine 500 mg/kg daily + cyclic fasting + paclitaxel 30 mg/kg weekly + anti-PD-L1 MoAb, compared to the fasting-Leucine doublet), “meaningful prolongation of animal survival”; with E0771 cell transplants (setting [11]) it was “prolonged animal survival”; with E0771 cell transplants (setting [9]), “significant prolongation of animal survival”. The animal survival entry in the experiment with E0771 cell transplants (setting [13]) is “prolonging animal survival”; in the experiment on E0771 cell transplants (setting [10]) it was “prolonged animal survival”. For the same compound, the tumor growth result in experiment [1] (setting [6]) was “significantly slowed down tumor growth”. For the same compound, the “in vivo tumor growth” value is “cooperated with chemotherapy in slowing down in vivo tumor growth” in experiment [1] (setting [8]); “cooperative reduction of in vivo tumor growth” in experiment [1] (setting [9]); “cooperatively slowed down in vivo tumor growth” with 4T1-luc cell transplants (setting [11]); “cooperated with chemotherapy in slowing down in vivo tumor growth” in the experiment on 4T1-luc cell transplants (setting [8]); “cooperative reduction of in vivo tumor growth” in the experiment on 4T1-luc cell transplants (setting [9]); “cooperatively slowed down in vivo tumor growth” in experiment [2] (setting [11]). Also, the “in vivo tumor growth” value is “cooperative reduction of in vivo tumor growth” in experiment [2] (setting [9]); “cooperated with chemotherapy in slowing down in vivo tumor growth” in experiment [2] (setting [12]); “cooperatively slowed down in vivo tumor growth” in the experiment on E0771 cell transplants (setting [11]); “cooperative reduction of in vivo tumor growth” in the experiment on E0771 cell transplants (setting [9]); “cooperated with chemotherapy in slowing down in vivo tumor growth” in the experiment on E0771 cell transplants (setting [13]). Moreover, the primary tumor growth entry (in experiment [1] (setting [10]); with 4T1-luc cell transplants (setting [10]); in experiment [2] (setting [10]); with E0771 cell transplants (setting [10])) was “slowed down primary tumor growth” throughout. In addition, the primary tumor result (in experiment [2] (quadruple treatment: Leucine + cyclic fasting + oxaliplatin + anti-PD-L1 MoAb); in the experiment on E0771 cell transplants (quadruple treatment: Leucine + cyclic fasting + paclitaxel + anti-PD-L1 MoAb)) was “complete regression of the primary tumor in some mice” throughout. The primary tumor mass entry in experiment [3] (observed in some animals) is listed as “completed disappearance of the primary tumor mass”. Besides, in experiment [3] (some mice), the “survival of some mice” value was “long-term survival”.
On to `O=C1[O][Pt]2([NH][C@@H]3CCCC[C@H]3[NH]2)[O]C1=O` [oxaliplatin, reference compound], for which, in experiment [2] (setting [14]), the animal survival result is recorded as “statistically significant prolongation of animal survival” and the “in vivo tumor growth” value is given as “slowed down in vivo tumor growth”.
